Assay results taken from US10787443B2, “RAF-degrading conjugate compounds” (ZAMBONI CHEM SOLUTIONS INC., priority 2017, dated 2020).
Structures can show the parent of a compound that is named as a salt.

The compounds below were run on GST-Braf kinase domain and biotinylated E3 substrate adapter (VHL/EloB/EloC complex or CRBN318-425) (assay: Dimerization assay (AlphaScreen/AlphaLisa), RAF/E3 dimerization). Conditions: Table 15; relative value; compounds 4 fold serial dilutions from 20 μM.
Assay type: binding
For `Cc1ncc(NC(=O)c2cccc(C(F)(F)F)c2)cc1-c1cnc(OCCCc2cn(CCCCCC(=O)Nc3cccc4c3C(=O)N(C3CCC(=O)NC3=O)C4=O)nn2)c(N2CCOCC2)c1` (stereo not drawn) [Compound 1.003, N-(6′-(3-(1-(6-((2-(2,6-dioxopiperidin-3-yl)-1,3-dioxoisoindolin-4-yl)amino)-6-oxohexyl)-1H-1,2,3-triazol-4-yl)propoxy)-2-methyl-5′-morpholino-[3,3′-bipyridin]-5-yl)-3-(trifluoromethyl)benzamide], the RAF/E3 Dimerization was “+ +”.

Same assay, conditions: Table 17; relative value; compounds 4 fold serial dilutions from 20 μM
In the case of `Cc1ccc(NC(=O)c2cccc(C(F)(F)F)c2)cc1-c1cnc(OCCOCCOCCOCc2cn(CCCCCC(=O)N[C@@H](C(=O)N3C[C@H](O)C[C@H]3C(=O)N[C@@H](C)c3ccc(-c4scnc4C)cc3)C(C)(C)C)nn2)c(N2CCOCC2)c1` [Compound 2.011, (2S,4R)-1-((R)-3,3-dimethyl-2-(6-(4-((2-(2-(2-((5-(2-methyl-5-(3-(trifluoromethyl)benza-mido)phenyl)-3-morpholinopyridin-2-yl)oxy)ethoxy)ethoxy)ethoxy)methyl)-1H-1,2,3-triazol-1-yl)hexanamido)butanoyl)-4-hydroxy-N—((S)-1-(4-(4-methylthiazol-5-yl)phenyl)-ethyl)pyrrolidine-2-carboxamide], the “RAF/E3 Dimerization” value is reported as “+++++ (RAF/E3 Dimerization ≥75%)”. In the case of `CNc1ncc2cc(-c3cc(NC(=O)NCCOCCOCCOCC(=O)N[C@@H](C(=O)N4C[C@H](O)C[C@H]4C(=O)N[C@@H](C)c4ccc(-c5scnc5C)cc4)C(C)(C)C)c(F)cc3C)c(C)nc2n1` [Compound 2.041, (2S,4R)-1-((R)-15-(tert-butyl)-1-((2-fluoro-4-methyl-5-(7-methyl-2-(methylamino)pyrido[2,3-d]pyrimidin-6-yl)phenyl)amino)-1,13-dioxo-5,8,11-trioxa-2,14-diazahexadecan-16-oyl)-4-hydroxy-N—((S)-1-(4-(4-methylthiazol-5-yl)phenyl)ethyl)pyrrolidine-2-carboxamide], the “RAF/E3 Dimerization” value is reported as “+ (5% > RAF/E3 Dimerization)”. With `CCCCCCNC(=O)Nc1cc(-c2cc3cnc(NCCCCc4cn(CCCCCC(=O)Nc5cccc6c5C(=O)N(C5CCC(=O)NC5=O)C6=O)nn4)nc3nc2C)c(C)cc1F` (stereo not drawn) [Compound 2.036, N-(2-(2,6-dioxopiperidin-3-yl)-1,3-dioxoisoindolin-4-yl)-6-(4-(4-((6-(4-fluoro-5-(3-hexylureido)-2-methylphenyl)-7-methylpyrido[2,3-d]pyrimidin-2-yl)amino)butyl)-1H-1,2,3-triazol-1-yl)hexanamide] the “RAF/E3 Dimerization” value was “++ (25% > RAF/E3 Dimerization ≥ 5%)”. In the case of `CCC(Cc1cnnn1CCCCCC(=O)Nc1cccc2c1C(=O)N(C1CCC(=O)NC1=O)C2=O)Oc1ncc(-c2cc(NC(=O)c3cccc(C(F)(F)F)c3)cnc2C)cc1N1CCOCC1` (racemic) [Compound 1.012, (±)-N-(6′-((1-(1-(6-((2-(2,6-dioxopiperidin-3-yl)-1,3-dioxoisoindolin-4-yl)amino)-6-oxohexyl)-1H-1,2,3-triazol-5-yl)butan-2-yl)oxy)-2-methyl-5′-morpholino-[3,3′-bipyridin]-5-yl)-3-(trifluoromethyl)benzamide], the “RAF/E3 Dimerization” value is reported as “+ (5% > RAF/E3 Dimerization)”. In the case of `Cc1ncc(NC(=O)c2cccc(C(F)(F)F)c2)cc1-c1cnc(OCCOCCOCCOCCN[C@@H](C(=O)N2C[C@H](O)C[C@H]2C(=O)N[C@@H](C)c2ccc(-c3scnc3C)cc2)C(C)(C)C)c(N2CCOCC2)c1` [Compound 2.006, (R)-1-((2S,4R)-4-hydroxy-2-(((S)-1-(4-(4-methylthiazol-5-yl)phenyl)ethyl)carbamoyl)-pyrrolidin-1-yl)-3,3-dimethyl-N-(2-(2-(2-(2-((2′-methyl-5-morpholino-5′-(3-(trifluoro-methyl)benzamido)-[3,3′-bipyridin]-6-yl)oxy)ethoxy)ethoxy)ethoxy)ethyl)-1-oxobutan-2-aminium formate], the “RAF/E3 Dimerization” value is reported as “+ (5% > RAF/E3 Dimerization)”.
